# Laboratory results from the supplement of paper PMC11061612.
# What was measured:
# Assay in all cases: combination Emax (second highest fraction inhibited in the dose matrix, 72 h); higher = more inhibition; extreme values may be limits of the assay
# [1] = system: MS751 (Cervical Carcinoma)
# Summary of the method: (§1)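 Bliss excess equals the observed combination effect minus the expected value EA + EB − EA·EB, where EA and EB are the effects of each agent alone. Combination Emax is the second-highest inhibition within the matrix. Inhibition was scaled from CellTiter-Glo 2.0 luminescence, with 0 set by vehicle wells and 1 by blank wells, after 72 hours of two-drug dosing of cells plated in 1536-well plates.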
# [2] = system: DiFi (Colorectal Carcinoma)
# Summary of the method: as §1
# [3] = system: KM12 (Colorectal Carcinoma)
# Summary of the method: as §1
# [4] = system: SU-DHL-8 (B-Cell Non-Hodgkin's Lymphoma)
# Summary of the method: as §1
# [5] = system: BL-41 (Burkitt's Lymphoma)
# Summary of the method: as §1
# [6] = system: SR (Other Blood Carcinomas)
# Summary of the method: as §1
# [7] = system: MKN28 (Gastric Carcinoma)
# Summary of the method: as §1
# [8] = system: HL-60 (Acute Myeloid Leukemia)
# Summary of the method: as §1
# [9] = system: HDQ-P1 (Breast Carcinoma)
# Summary of the method: as §1
# [10] = system: TE-6 (Esophageal Squamous Cell Carcinoma)
# Summary of the method: as §1
# [11] = system: NCI-H847 (Small Cell Lung Carcinoma)
# Summary of the method: as §1
# WM-115 (Melanoma) = system: WM-115 (Melanoma)
# Summary of the method: as §1
# [12] = system: K-562 (Chronic Myelogenous Leukemia)
# Summary of the method: as §1
# CHP-212 (Neuroblastoma) = system: CHP-212 (Neuroblastoma)
# Summary of the method: as §1
# [13] = system: NCI-H1792 (Lung Adenocarcinoma)
# Summary of the method: as §1
# ES8 (Ewing's Sarcoma) = system: ES8 (Ewing's Sarcoma)
# Summary of the method: as §1
# [14] = system: CAMA-1 (Breast Carcinoma)
# Summary of the method: as §1
# [15] = system: KARPAS-45 (T-Lymphoblastic Leukemia)
# Summary of the method: as §1
# [16] = system: GR-ST (B-Lymphoblastic Leukemia)
# Summary of the method: as §1
# [17] = system: SW837 (Colorectal Carcinoma)
# Summary of the method: as §1
SMILES,combination Emax [1],combination Emax [2],combination Emax [3],combination Emax [4],combination Emax [5],combination Emax [6],combination Emax [7],combination Emax [8],combination Emax [9],combination Emax [10],combination Emax [11],combination Emax (WM-115 (Melanoma)),combination Emax [12],combination Emax (CHP-212 (Neuroblastoma)),combination Emax [13],combination Emax (ES8 (Ewing's Sarcoma)),combination Emax [14],combination Emax [15],combination Emax [16],combination Emax [17]
"Cc1c2c(nn1C)CSCc1cc(n(C)n1)CSc1cc(c3ccccc3c1)OCCCc1c(C(=O)O)n(C)c3c-2c(Cl)ccc13 [AZD5991] + CCN(CCO)CCCOc1ccc2c(Nc3cc(CC(=O)Nc4cccc(F)c4)[nH]n3)ncnc2c1 [AZD2811] (first compound max 1 µM, 7x7, partner max 1 µM)",0.855,0.859,0.249,0.931,1,0.988,0.329,1,0.159,0.715,0.973,0.232,0.43,0.86,0.314,1,0.914,1,0.336,0.231
"Cc1c2c(nn1C)CSCc1cc(n(C)n1)CSc1cc(c3ccccc3c1)OCCCc1c(C(=O)O)n(C)c3c-2c(Cl)ccc13 [AZD5991] + C=CCn1c(=O)c2cnc(Nc3ccc(N4CCN(C)CC4)cc3)nc2n1-c1cccc(C(C)(C)O)n1 [AZD1775] (first compound max 1 µM, partner max 1 µM)",0.9,0.856,0.875,1,1,0.923,0.572,1,0.579,0.773,1,0.34,0.747,0.916,0.708,0.717,0.635,1,0.791,0.406
"CC1(C)CCC(CN2CCN(c3ccc(C(=O)NS(=O)(=O)c4ccc(NCC5CCOCC5)c([N+](=O)[O-])c4)c(Oc4cnc5[nH]ccc5c4)c3)CC2)=C(c2ccc(Cl)cc2)C1 [Venetoclax] + CCN(CCO)CCCOc1ccc2c(Nc3cc(CC(=O)Nc4cccc(F)c4)[nH]n3)ncnc2c1 [AZD2811] (first compound max 1 µM, 7x7, partner max 1 µM)",0.424,0.486,0.17,0.414,0.604,0.946,0.221,0.918,0.172,0.26,1,0.211,0.393,0.74,0.216,1,0.224,0.96,0.648,0.2
"CC1(C)CCC(CN2CCN(c3ccc(C(=O)NS(=O)(=O)c4ccc(NCC5CCOCC5)c([N+](=O)[O-])c4)c(Oc4cnc5[nH]ccc5c4)c3)CC2)=C(c2ccc(Cl)cc2)C1 [Venetoclax] + Cc1cc2ncnn2cc1Nc1ncc2c(n1)n(C1CCOCC1)c(=O)n2C [AZD7648] (first compound max 1 µM, 7x7, partner max 10 µM)",0.191,0.246,0.21,0.354,0.17,0.82,0.229,0.778,0.189,0.432,0.735,0.238,0.339,0.314,0.397,0.427,0.228,0.6,0.679,0.102
"CN(CCO)CC[C@H](CSc1ccccc1)Nc1ccc(S(=O)(=O)NC(=O)c2ccc(N3CCC([C@@H](O)c4ccccc4-c4ccc(Cl)cc4)CC3)cc2)cc1S(=O)(=O)C(F)(F)F [AZD4320] + C[C@@H]1COCCN1C2=NC(=NC(=C2)C3(CC3)[S@](=N)(=O)C)C4=C5C=CNC5=NC=C4 [AZD6738] (first compound max 1 µM, 7x7, partner max 10 µM)",0.378,0.954,0.764,1,1,0.982,0.442,0.95,0.745,0.792,1,0.769,0.88,0.82,0.777,1,0.658,1,0.745,0.585
"CN(CCO)CC[C@H](CSc1ccccc1)Nc1ccc(S(=O)(=O)NC(=O)c2ccc(N3CCC([C@@H](O)c4ccccc4-c4ccc(Cl)cc4)CC3)cc2)cc1S(=O)(=O)C(F)(F)F [AZD4320] + CN(C)CCCOc1ccc(-c2ccc3ncc4c(c3c2)n(C2CCOCC2)c(=O)n4C)cn1 [AZD0156] (first compound max 1 µM, 7x7, partner max 1 µM)",0.101,0.608,0.186,0.957,0.277,0.252,0.0805,0.898,0.465,0.391,1,0.363,0.345,0.278,0.12,0.64,0.117,0.988,0.175,0.191
